Results on two compounds are retold here after patent publication EP0643558B1, “SANITIZING COMPOSITIONS” (ECOLAB INC., priority 1991, dated 1992).

Type in all cases: cell-based
Experiment [1] deals with Escherichia coli. In words: A.O.A.C. Sanitizing Test (Germicidal and Detergent Sanitizing Action of Disinfectants, para. 960.09). To be noted: use solutions, 0.1 wt-% fatty acid + 0.1 wt-% lactic acid (88% w/v) in distilled water, solution pH 2.96-2.97. The text has this: (§1) A sanitizer is an agent that reduces the number of bacterial contaminants to safe levels as judged by public health requirements. Practically, a sanitizer must result in 99.999% reduction (5 log order reduction) for given organisms as defined by Germicidal and Detergent Sanitizing Action of Disinfectants, Official Methods of Analysis of the Association of Official Analytical Chemists, paragraph 960.09 and applicable sections, 15th Edition, 1990 (EPA Guideline 91-2). In common practice, substances that are applied to food contact surfaces for antimicrobial purposes must meet this requirement. It has now been discovered that a sanitizer comprising octanoic acid (C8) plus a food additive organic or inorganic acid buffer does indeed meet all of the criteria set forth for a food grade sanitizer. […] Table 1A is a summary of compositions and Table 1B is a summary of their bactericidal activity as determined by the official A.O.A.C. Sanitizing Test. (Germicidal and Detergent Sanitizing Action of Disinfectants, Official Methods of Analysis of the Association of Official Analytical Chemists, paragraph 960.09 and applicable sections, 15th Edition, 1990, EPA guideline 91-2). The octanoic acid is indeed very unique, peaking out at seven log order reductions with both a gram positive (Staphylococcus aureus) and a gram negative (Escherichia coli) bacteria and passes the test requirement for a sanitizing agent. […] Examples IA through IE represent use solutions of the sanitizers.

Experiment [2] concerns Staphylococcus aureus. The experiment is described as above. To be noted: use solutions, 0.1 wt-% fatty acid + 0.1 wt-% lactic acid (88% w/v) in distilled water, solution pH 2.96-2.97.
Excerpt: as §1

For experiment [3], the system named is Aspergillus niger. In words: Fungicidal activity, A.O.A.C. Disinfection Test Method. Conditions: spores of Aspergillus niger, compared with the other test organisms of Table 5B. From the text:
A disinfectant is an agent that kills all vegetative cells including most recognized pathogenic microorganisms. As such, it must pass a more stringent bactericidal test; the A.O.A.C. Use Dilution Methods, Official Methods of Analysis of the Association of Official Analytical Chemists, paragraph 955.14 and applicable sections, 15th Edition, 1990 (EPA Guideline 91-2). […] Disinfection Test Method. […]

With `CCCCCCCCCC(=O)O` [decanoic acid, reference compound], in experiment [1], the “Results Log Reductions Col. Forming Units E. coli” value is listed as “possesses some activity”. In addition, the “Results Log Reductions Col. Forming Units S. aureus” value in experiment [2] is “possesses some activity”.
Regarding `CCCCCCCC(=O)O` [octanoic acid, Octanoic acid], the “concentration for complete kill” value in experiment [3] is given as “required a higher concentration for complete kill”. Further, in experiment [1], the “Results Log Reductions Col. Forming Units E. coli” value was “seven”. In experiment [2], the “Results Log Reductions Col. Forming Units S. aureus” value is given as “seven”.
